Reference: ChEMBL document CHEMBL5052856, “Inhibitors of apol1 and methods of using same” (2021)

Key:
[1] = molecular target: Apolipoprotein L1 (Homo sapiens, UniProt O14791); assay: Inhibition of APOL1 G1 variant in human HEK293-T-REx cells measured by Thallium assay; assay type: cell-based
[2] = test system: Trypanosoma brucei brucei; assay: Antitrypanosomal activity against Trypanosoma brucei brucei assessed as trypanosome lysis using recombinant APOL1 protein G1 variant and measured by Alamar blue based fluoresence assay; assay type: functional, organism-based

Compound	IC50 [1] [nM]	IC50 [2] [nM]
C[C@H](O)[C@@H](CO)NC(=O)[C@H]1C[C@H](c2c(-c3ccc(F)cc3)[nH]c3c(F)cc(F)cc32)C1	< 250	< 250
O=C(CC1CC(c2c(-c3ccc(F)cc3)[nH]c3c(F)cc(F)cc23)C1)N[C@@H](CO)C(F)(F)F (some centres undefined)	> 1000	–
C[C@H](NCC1CC(c2c(-c3ccc(F)cc3)[nH]c3c(F)cc(F)cc23)C1)C(N)=O (some centres undefined)	> 1000	–
CC(C)(NCC1CC(c2c(-c3ccc(F)cc3)[nH]c3c(F)cc(F)cc23)C1)C(N)=O (centres undefined)	> 1000	–
NC(=O)C(CO)NCC1CC(c2c(-c3ccc(F)cc3)[nH]c3c(F)cc(F)cc23)C1 (centres undefined)	0.25	–
CC(C)C(CO)NC(=O)[C@H]1C[C@H](c2c(-c3ccc(F)cc3)[nH]c3c(F)cc(F)cc32)C1 (some centres undefined)	> 1000	250
CC(C)(CO)NC(=O)[C@H]1C[C@H](c2c(-c3ccc(F)cc3)[nH]c3c(F)cc(F)cc32)C1	< 250	250
CNC(=O)CNC[C@H]1C[C@H](c2c(-c3ccc(F)cc3)[nH]c3c(F)cc(F)cc32)C1	< 250	–
CN(C)C(=O)CNCC1CC(c2c(-c3ccc(F)cc3)[nH]c3c(F)cc(F)cc23)C1 (centres undefined)	0.25	–
O=C(NCC(F)(F)F)[C@H]1C[C@H](c2c(-c3ccc(F)cc3)[nH]c3c(F)cc(F)cc32)C1	0.25	> 1000
COC1CC1NC(=O)[C@H]1C[C@H](c2c(-c3ccc(F)cc3)[nH]c3c(F)cc(F)cc32)C1 (some centres undefined)	> 1000	> 1000
O=C(CC1CC(c2c(-c3ccc(F)cc3)[nH]c3c(F)cc(F)cc23)C1)N[C@H](CO)C(F)(F)F (some centres undefined)	> 1000	–
O=C(NC1CC(O)C1)[C@H]1C[C@H](c2c(-c3ccc(F)cc3)[nH]c3c(F)cc(F)cc32)C1 (some centres undefined)	0.25	250
Cc1ccn(CCNC(=O)[C@H]2C[C@H](c3c(-c4ccc(F)cc4)[nH]c4c(F)cc(F)cc43)C2)n1	> 1000	250
NCCCNC(=O)[C@H]1C[C@H](c2c(-c3ccc(F)cc3)[nH]c3c(F)cc(F)cc32)C1	0.25	< 250
O=C(O)CNC(=O)[C@H]1C[C@H](c2c(-c3ccc(F)cc3)[nH]c3c(F)cc(F)cc32)C1	> 1000	> 1000
CNC(=O)C(C)NCC1CC(c2c(-c3ccc(F)cc3)[nH]c3c(F)cc(F)cc23)C1 (centres undefined)	0.25	–
O=C(CNC[C@H]1C[C@H](c2c(-c3ccc(F)cc3)[nH]c3c(F)cc(F)cc32)C1)NCO	< 250	–
O=C(NC1CCOC1)[C@H]1C[C@H](c2c(-c3ccc(F)cc3)[nH]c3c(F)cc(F)cc32)C1 (some centres undefined)	> 1000	250
COCCNC(=O)[C@H]1C[C@H](c2c(-c3ccc(F)cc3)[nH]c3c(F)cc(F)cc32)C1	> 1000	250
CC(C)CC(NCC1CC(c2c(-c3ccc(F)cc3)[nH]c3c(F)cc(F)cc23)C1)C(N)=O (centres undefined)	> 1000	–
O=C(N[C@@H]1CCOC1)[C@H]1C[C@H](c2c(-c3ccc(F)cc3)[nH]c3c(F)cc(F)cc32)C1	0.25	250

Compound	IC50 [1] [nM]	IC50 [2] [nM]
C[C@@H](NCC1CC(c2c(-c3ccc(F)cc3)[nH]c3c(F)cc(F)cc23)C1)C(=O)N(C)C (some centres undefined)	> 1000	–
CN1CCC(NC(=O)[C@H]2C[C@H](c3c(-c4ccc(F)cc4)[nH]c4c(F)cc(F)cc43)C2)C1=O (some centres undefined)	< 250	250
O=C(NCCn1cncn1)[C@H]1C[C@H](c2c(-c3ccc(F)cc3)[nH]c3c(F)cc(F)cc32)C1	< 250	< 250
CC(CO)CNC(=O)[C@H]1C[C@H](c2c(-c3ccc(F)cc3)[nH]c3c(F)cc(F)cc32)C1 (some centres undefined)	0.25	250
CC(C)CC(NC(=O)[C@H]1C[C@H](c2c(-c3ccc(F)cc3)[nH]c3c(F)cc(F)cc32)C1)C(N)=O (some centres undefined)	> 1000	> 1000
O=C(CC1CC(c2c(-c3ccc(F)cc3)[nH]c3c(F)cc(F)cc23)C1)N[C@@H]1CCNC1=O (some centres undefined)	> 1000	–
NC(=O)CNC(=O)[C@H]1C[C@H](c2c(-c3ccc(F)cc3)[nH]c3c(F)cc(F)cc32)C1	< 250	< 250
C[C@@H](CO)NC(=O)CC1CC(c2c(-c3ccc(F)cc3)[nH]c3c(F)cc(F)cc23)C1 (some centres undefined)	> 1000	–
O=C(N[C@H]1C[C@H](O)C1)[C@H]1C[C@H](c2c(-c3ccc(F)cc3)[nH]c3c(F)cc(F)cc32)C1	> 1000	250
O=C1NCCC1NC(=O)[C@H]1C[C@H](c2c(-c3ccc(F)cc3)[nH]c3c(F)cc(F)cc32)C1 (some centres undefined)	< 250	< 250
O=C(NCCn1cccc1)[C@H]1C[C@H](c2c(-c3ccc(F)cc3)[nH]c3c(F)cc(F)cc32)C1	> 1000	250
CN1CCN(C(=O)CNCC2CC(c3c(-c4ccc(F)cc4)[nH]c4c(F)cc(F)cc34)C2)CC1 (centres undefined)	> 1000	–
C[C@@H](NC(=O)[C@H]1C[C@H](c2c(-c3ccc(F)cc3)[nH]c3c(F)cc(F)cc32)C1)C(N)=O	0.25	> 1000
C[C@H](NCC1CC(c2c(-c3ccc(F)cc3)[nH]c3c(F)cc(F)cc23)C1)C(=O)N(C)C (some centres undefined)	0.25	–
O=C(CC1CC(c2c(-c3ccc(F)cc3)[nH]c3c(F)cc(F)cc23)C1)N[C@H]1CCNC1=O (some centres undefined)	> 1000	–
C[C@@H](CO)NC(=O)[C@H]1C[C@H](c2c(-c3ccc(F)cc3)[nH]c3c(F)cc(F)cc32)C1	< 250	< 250
NCC(O)CNC(=O)[C@H]1C[C@H](c2c(-c3ccc(F)cc3)[nH]c3c(F)cc(F)cc32)C1 (some centres undefined)	0.25	250
O=C1NCCCC1NC(=O)[C@H]1C[C@H](c2c(-c3ccc(F)cc3)[nH]c3c(F)cc(F)cc32)C1 (some centres undefined)	0.25	250
CON(C)C(=O)CNC[C@H]1C[C@H](c2c(-c3ccc(F)cc3)[nH]c3c(F)cc(F)cc32)C1	0.25	–
C[C@H](CO)NC(=O)C1CCC(c2c(-c3ccc(F)cc3)[nH]c3c(F)cc(F)cc23)C1 (some centres undefined)	> 1000	–
C[C@H](CO)NC(=O)CC1CC(c2c(-c3ccc(F)cc3)[nH]c3c(F)cc(F)cc23)C1 (some centres undefined)	> 1000	–
O=C(NCC(F)F)N1CC(c2c(-c3ccc(F)cc3)[nH]c3c(F)cc(F)cc23)C1	0.25	–

Compound	IC50 [1] [nM]	IC50 [2] [nM]
COCCNC(=O)CC1CC(c2c(-c3ccc(F)cc3)[nH]c3c(F)cc(F)cc23)C1 (centres undefined)	> 1000	–
Cc1cnc(NC(=O)[C@H]2C[C@H](c3c(-c4ccc(F)cc4)[nH]c4c(F)cc(F)cc43)C2)o1	≥ 250	< 250
CCNC(=O)N1CC(c2c(-c3ccc(F)cc3)[nH]c3c(F)cc(F)cc23)C1	0.25	–
Cc1cc(NC(=O)[C@H]2C[C@H](c3c(-c4ccc(F)cc4)[nH]c4c(F)cc(F)cc43)C2)no1	0.25	250
CC(C)NC(=O)CNC[C@H]1C[C@H](c2c(-c3ccc(F)cc3)[nH]c3c(F)cc(F)cc32)C1	> 1000	–
CC[C@H](NCC1CC(c2c(-c3ccc(F)cc3)[nH]c3c(F)cc(F)cc23)C1)C(=O)NCC(F)(F)F (some centres undefined)	> 1000	–
O=C(NC(CO)CO)[C@H]1C[C@H](c2c(-c3ccc(F)cc3)[nH]c3c(F)cc(F)cc32)C1	< 250	< 250
O=C(NC1(CO)CCC1)[C@H]1C[C@H](c2c(-c3ccc(F)cc3)[nH]c3c(F)cc(F)cc32)C1	< 250	< 250
O=C(CC1CC(c2c(-c3ccc(F)cc3)[nH]c3c(F)cc(F)cc23)C1)NC1(CO)CCC1 (centres undefined)	> 1000	–
NC(=O)C(CC(F)(F)F)NCC1CC(c2c(-c3ccc(F)cc3)[nH]c3c(F)cc(F)cc23)C1 (centres undefined)	> 1000	–
Cn1ccc(NC(=O)[C@H]2C[C@H](c3c(-c4ccc(F)cc4)[nH]c4c(F)cc(F)cc43)C2)n1	> 1000	250
CNC(=O)C(C)NC(=O)[C@H]1C[C@H](c2c(-c3ccc(F)cc3)[nH]c3c(F)cc(F)cc32)C1 (some centres undefined)	0.25	250
O=C(CNC[C@H]1C[C@H](c2c(-c3ccc(F)cc3)[nH]c3c(F)cc(F)cc32)C1)NC1CC1	0.25	–
O=C1CCC(NC(=O)[C@H]2C[C@H](c3c(-c4ccc(F)cc4)[nH]c4c(F)cc(F)cc43)C2)C(=O)N1 (some centres undefined)	0.25	250
NC(=O)C(CO)NC(=O)[C@H]1C[C@H](c2c(-c3ccc(F)cc3)[nH]c3c(F)cc(F)cc32)C1 (some centres undefined)	< 250	< 250
CC(CO)NC(=O)[C@H]1C[C@H](c2c(-c3ccc(F)cc3)[nH]c3c(F)cc(F)cc32)C1 (some centres undefined)	< 250	< 250
O=C(CC1CC(c2c(-c3ccc(F)cc3)[nH]c3c(F)cc(F)cc23)C1)NC1(CO)CC1 (centres undefined)	0.25	–
O=C(CC1CC(c2c(-c3ccc(F)cc3)[nH]c3c(F)cc(F)cc23)C1)NCCO (centres undefined)	> 1000	–
CC(C)(NC(=O)[C@H]1C[C@H](c2c(-c3ccc(F)cc3)[nH]c3c(F)cc(F)cc32)C1)C(N)=O	0.25	< 250
O=C(N[C@H]1CCNC1=O)O[C@H]1C[C@H](c2c(-c3ccc(F)cc3)[nH]c3c(F)cc(F)cc32)C1 (relative stereo)	> 1000	–
O=C(NC[C@@H](O)C(F)(F)F)NC[C@H]1C[C@H](c2c(-c3ccc(F)cc3)[nH]c3c(F)cc(F)cc32)C1 (relative stereo)	> 1000	–
